Results: patent US20050025758A1, “Method and compositions for treatment of insulin-dependant diabetes mellitus” (priority 1996, published 2005)
Marks after values point to notes of the source that are not given here.

How the values were obtained:
[1] = tested on: splenocytes from aerosol-treated mice; experiment: Cytokine secretion by splenocytes from aerosol-treated mice (ELISA); assay type: cell-based; details: splenocytes with 40 μg/ml mouse insulin II B chain peptide (a 9-23), three days incubation; for IL-4 secretion / IL-10 secretion: lower limit of detection 16 pg/ml
Procedure: (§1) Spleen cells from individual normoglycemic mice were treated with a red cell lysis buffer, resuspended and incubated in quadruplicate at 2×10^5/200 μl of serum-free HL-1 medium (Hycor, Irvine, Calif.) containing […] 2-mercaptoethanol, in round-bottom wells with the indicated concentrations of antigen. After 3 days at 37° C. in 5% v/v CO2/air, 100 μl aliquots from each replicate supernatant were collected and stored at −70° C. for cytokine assays; the cells were then pulsed with 3H-thymidine, harvested 16 hours later and counted on a Topcount™ micro-scintillation counter (Packard, Meriden, Conn.). Insulin was recombinant human (Humulin R, Eli Lilly), is used for aerosol treatments. Insulin B-chain peptide corresponding to amino acids 9-23 of mouse insulin II (Peptide Express, Fort Collins, Colo.) was more than 90% pure by HPLC analysis. GAD65 was the recombinant human form expressed with a C-terminal hexahistidine in a baculovirus system and purified by Ni^2+ chelation) affinity chromatography. It was resolved as a single band in SDS-PAGE and was endotoxin-free by the quantitative Limulus lysate assay (BioWhittaker, Walkersville, Md.).
IL-2, -4, -10 and IFN-γ were measured by ELISAs with monoclonal antibody pairs (Pharmingen); the lower limits of detection were 62, 16, 16 and 55 pg/ml, respectively. TGF-β1 was measured with an ELISA kit (Promega) with a lower limit of detection of 16 pg/ml.
Supernatants from replicate culture wells (Table 2) were sampled alter three days incubation and assayed for cytokines.

female NOD mice [2] = experiment: Histology: insulitis score and salivary gland infiltration; assay type: in vivo, mouse; details: for Insulitis score: mean ± SD, scale 0-4, aerosol 10 consecutive days then weekly from 28 days of age, five non-diabetic mice per group at 105 days of age
Procedure: Mice were killed by CO2 inhalation and the pancreas and salivary glands immediately removed into Bouin's fixative and embedded in paraffin. The insulitis score, a measure of the severity of islet infiltration was determined blindly by two independent investigators by grading and then averaging a minimum of 15 separate islets in serial 6 μm pancreas sections stained with haematoxylin and eosin. The grading scale was: 0, no filtration, islet intact; 1, <10 peri-islet lymphoid cells, islet intact; 2, 10-20 peri-and intra-islet lymphoid cells, islet intact; 3, >20 peri- and intra-islet lymphoid cells, <50% of islet replaced or destroyed; 4, massive lymphoid infiltrate with >50% of islet replaced or destroyed. Infiltration of the salivary glands was graded by the number of lymphoid cells in clusters: 0, no cells; 1, <10 cells; 2, 10-50 cells; 3, >50 cells.
Mice (32/group) were given either aerosol insulin or ovalbumin for 10 consecutive days and then weekly from 28 days of age. At 105 days of age, five non-diabetic mice from each group were killed for pancreas histology. The insulitis score is expressed as mean ±SD. • 1.

[3] = tested on: splenocytes from aerosol-treated mice; experiment: Proliferative responses of splenocytes from aerosol-treated mice ([3H]-thymidine uptake); assay type: cell-based, mouse
Procedure: as §1
Splenocytes from three mice per group were assayed in quadruplicate in HL-1 serum-free medium. Statistical comparisons (Mann-Whitney U tests) were between the twelve results for each group.

[4] = tested on: at-risk first-degree relatives with immune markers of IDDM; details: intranasal
Text: A clinical trial involves administration of intranasal insulin to at-risk but otherwise healthy first-degree relatives with immune markers of IDDM, including circulating antibodies and T cells reactive with islet autoantigens.
This trial examines the effect of intranasal insulin on the surrogate immune markers of IDDM. The design is randomized, double-blind and placebo-controlled, with a crossover at six months. The placebo is the carrier solution normally used for insulin. […] Treatment is administered daily for 10 consecutive days, then for two consecutive days weekly. After six months, treatment is crossed over (from insulin to placebo, or vice versa).
The administration dose of insulin per nostril is approximately 200 μl of the commercial 4 mg/ml solution. The placebo is the carrier solution in which the insulin is normally dissolved.

NOD female mice = experiment: Intranasal insulin, proinsulin or proinsulin peptide 24-36, diabetes in NOD mice; assay type: in vivo, mouse; details: for onset and incidence of diabetes: single intranasal dose at either 28 or 56 days of age, compared to control proteins ovalbumin or hen egg lysozyme; for effectiveness on a comparative dose basis: single intranasal dose, NOD female mice
Procedure: Intranasal insulin (FIG. 1), proinsulin (FIG. 2) or proinsulin peptide 24-36 (FIG. 3). Commercially available insulin at 4 mg/ml, or proinsuling or proinsulin peptide 24-36 at 1-4 mg/ml in either insulin carrier solution or mouse tonicity—phosphate buffered saline, was applied in a volume of 10-20 μl to the nostrils of unanaesthetised, restrained NOD female mice at either 28 or 56 days of age.

female NOD mice [5] = experiment: Aerosol treatment and diabetes assessment (blood glucose >11 mM); assay type: in vivo, mouse; details: for Diabetes frequency: 32 mice/group, aerosol 10 consecutive days then weekly from 28 days of age, at 105 days of age; for diabetes incidence at 156 days of age (median) / diabetes incidence at 240 days of age (median): aerosol for 3 or 10 consecutive days and then weekly from 28 days of age, five separate experiments; for diabetes incidence at 240 days of age (median): p=0.005; for incidence of diabetes by 240 days of age: single aerosol treatment at 28 days of age, female NOD mice
Procedure: Semi-sealed boxes of eight female NOD mice were each aerosolized by connection to a standard, patient electric pump ([…] Aerosol MKV, Anaesthetic Supplies, Sydney, Australia) and Aeroflo nebulizer (Waite & Co., Sydney). Recombinant human insulin (Humulin R, Eli Lilly) or control ovalbumin protein, at 4 mg/ml, was delivered over 10 min. at an air flow rate of 6 litres/min. in a rated droplet size of <5.8 μm, to groups of 24-32 mice. All treatments were given between 0900 and 1100 hours. Protocols and mouse care were approved and supervised by the institutional Animal Ethic Committee. Retro-orbital venous blood was sampled at least every 28 days from 100 days of age and mice considered to be diabetic if their blood glucose, confirmed by a repeat test, was >11 mM. Glucose was measured with BM-Test Glycemic® strips and a Reflolux® II meter (Boehringer-Mannheim), on a drop of blood aspirated via a glass capillary tube from the retro-orbital venous plexus of unanesthetised mice. Aerosol human insulin or ovalbumin were administered in different schedules to female NOD mice from 28 days of age, the earliest time at which insulitis is detectable in the colony of mice, and their incidence of diabetes and severity of insulitis subsequently measured.

[6] = humans, in the absence of absorption-promoting agents; cited from earlier work
insulin antibodies = experiment: Insulin antibodies in serum, 125I-insulin immunoprecipitation assay; assay type: in vivo, mouse; details: sera n=12/group, aerosol-treated mice aged 70-105 days
Procedure: To detect insulin antibodies, ^125lablelled human insulin (approx. 100,000 cpm: specific activity 120 μCi/μg) was incubated with or without excess unlabelled insulin (10 μg/ml) in phosphate-buffered saline containing a mixture of protease inhibitors and serial log dilutions of mouse serum, for 5 days at 4° C. Complexes were then precipitated with rabbit anti-mouse globulin anti-serum, washed and counted in a gamma counter. Positive control sera (guinea pig anti-porcine insulin serum, human IDDM sera) maximally precipitated 37-54% of the total radioactivity. Non-specific binding, in the presence of excess unlabelled insulin, was ≦3.3%.
Insulin antibodies were measured by a standard immunoprecipitation assay with sera (n=12/group) from insulin- and ovalbumin-treated mice aged 70-105 days. […] Defective suppressor T-cell function has been postulated to shift the balance towards Th1 in IDDM (11). It seems unlikely that the reduced T-cell proliferative response to GAD could reflect ‘bystander’ suppression due to the secretion of the Th2 cytokines IL4 and IL-10 (8) by insulin aerosol-induced regulatory cells because, apart from an absence of added insulin in the cultures with GAD, responses to conA and anti-CD3 were not impaired. A direct explanation is that tile reduced response to GAD reflects the protective effect of aerosol insulin on insulitis and β-cell destruction. […]

female NOD mice [7] = experiment: Aerosol treatment and diabetes assessment (blood glucose >11 mM); assay type: in vivo, mouse; details: aerosol for 10 consecutive days and then weekly, started at 49 days of age (insulitis well-established)
male NOD mice = experiment: Adoptive transfer of diabetes (co-transfer of splenocytes); assay type: in vivo, mouse
NOD mouse = details: oral, 1 mg twice weekly; cited from earlier work
[8] = additive: Anti-CD3 antibody (10 μg/ml)
[9] = additive: Concanavalin A (5 μg/ml)
[10] = additive: Human GAD65 (20 μg/ml)
[11] = additive: Human insulin (40 μg/ml)
[12] = additive: Mouse insulin II B-chain (a 9-23) (40 μg/ml)

Recombinant human insulin
IFN-γ secretion [1]: 368 ± 71 pg/mL | IL-2 secretion [1]: 200 ± 15 pg/mL | TGF-β secretion [1]: 293 ± 131 | IL-4 secretion [1]: 36 ± 6 pg/mL | IL-10 secretion [1]: 222 ± 149 pg/mL | Infiltration of the salivary glands by lymphoid cells (sialitis) (female NOD mice [2]; NOD mice, aerosol treatment): unaffected | Insulitis score (female NOD mice [2]): 1.2 ± 0.98^1 | [3H]-thymidine uptake (cpm, mean ± SD) [3, 8]: 2221 ± 533 cpm | [3H]-thymidine uptake (cpm, mean ± SD) [3, 9]: 3357 ± 812 cpm | [3H]-thymidine uptake (cpm, mean ± SD) [3, 10]: 424 ± 165^c cpm | [3H]-thymidine uptake (cpm, mean ± SD) [3, 11]: 134 ± 27 cpm | [3H]-thymidine uptake (cpm, mean ± SD) [3, 12]: 169 ± 80^b cpm | [3H]-thymidine uptake (cpm, mean ± SD) ([3]; additive: None): 157 ± 28^a cpm | side effects ([4]; 36 high-risk subjects aged 4-30): No significant side effects | mucosal irritation ([4]; human subjects): only been rare and then minor and transient | onset and incidence of diabetes (NOD female mice): significantly delayed the onset and decreased the incidence of diabetes | Diabetes frequency (female NOD mice [5]): 2/32 (6.3%)^2 | clinical complications or abnormalities at autopsy (female NOD mice [5]; NOD mice treated with aerosol or intranasal insulin): no clinical complications, or abnormalities at autopsy | diabetes incidence at 156 days of age (median) (female NOD mice [5]): 23% | diabetes incidence at 240 days of age (median) (female NOD mice [5]): 49% | incidence of diabetes by 240 days of age (female NOD mice [5]): 75% | systemic uptake from the naso-pharyngeal mucosa [6]: insignificant | Precipitation of 125I-insulin radioactivity by antibodies in sera (mean precipitated ± SD) (insulin antibodies): 12.7±3.6% | diabetes incidence at 156 days (female NOD mice [7]): 25% | Diabetes incidence after transfer decreased (male NOD mice; 1.4×10^5 γδ T cells from aerosol-treated mice co-injected with 2×10^7 spleen cells from diabetic mice, for at least 70 days): 50% | Diabetes incidence suppressed after adoptive transfer (male NOD mice; co-injection of splenocytes or nylon wool-non-adherent splenocytes from aerosol-treated mice with 2×10^7 diabetic spleen cells, six separate experiments): ≥ 75%

ovalbumin [control ovalbumin protein, at 4 mg/ml, delivered as aerosol]
IFN-γ secretion [1]: 423 ± 31 pg/mL | IL-2 secretion [1]: 186 ± 27 pg/mL | TGF-β secretion [1]: 162 ± 41 | IL-4 secretion [1]: not detectable | IL-10 secretion [1]: not detectable | Insulitis score (female NOD mice [2]): 2.6 ± 0.92 | [3H]-thymidine uptake (cpm, mean ± SD) [3, 8]: 2643 ± 1126 cpm | [3H]-thymidine uptake (cpm, mean ± SD) [3, 9]: 2960 ± 494 cpm | [3H]-thymidine uptake (cpm, mean ± SD) [3, 10]: 1381 ± 650^f cpm | [3H]-thymidine uptake (cpm, mean ± SD) [3, 11]: 197 ± 82 cpm | [3H]-thymidine uptake (cpm, mean ± SD) [3, 12]: 435 ± 240^e cpm | [3H]-thymidine uptake (cpm, mean ± SD) ([3]; additive: None): 208 ± 29^d cpm | Diabetes frequency (female NOD mice [5]): 8/32 (25%) | diabetes incidence at 156 days of age (median) (female NOD mice [5]): 47% | diabetes incidence at 240 days of age (median) (female NOD mice [5]): 79% | incidence of diabetes by 240 days of age (female NOD mice [5]): 88% | Precipitation of 125I-insulin radioactivity by antibodies in sera (mean precipitated ± SD) (insulin antibodies): 6.9±2.5% | diabetes incidence at 156 days (female NOD mice [7]): 58%

porcine insulin [oral porcine insulin]
onset and incidence of diabetes (NOD mouse): delayed the onset and reduced the incidence of diabetes

proinsulin
onset and incidence of diabetes (NOD female mice): significantly delayed the onset and decreased the incidence of diabetes | effectiveness on a comparative dose basis (NOD female mice): more effective than insulin

proinsulin peptide 24-36 (AFVNQHLCGSHLV; pro-form; UniProt P01308 24-36, looked up, fragment) [peptide fragment of proinsulin, amino acids 24-36, applied intranasally at 1-4 mg/ml]
onset and incidence of diabetes (NOD female mice): significantly delayed the onset and decreased the incidence of diabetes | effectiveness on a comparative dose basis (NOD female mice): more effective than insulin | adoptive transfer of diabetes by splenocytes from diabetic mice (male NOD mice; whole splenocytes, and splenocytes depleted of CD8 but not CD4 T cells, from female mice given a single intranasal dose at 28 days, taken at 56 days): significantly suppressed the adoptive transfer of diabetes
